# Experimental data taken from patent US10227344B2, “CK2 inhibitors, compositions and methods thereof” (Polaris Pharmaceuticals, Inc., priority 2016, dated 2019).
# Where a name gives a salt, the structure may show the parent alone.
# Legend:
# [1] = target: purified CK2α enzyme (Homo sapiens, UniProt P68400); assay: CK2 Protein Kinase Inhibition Assay (coupled PK/LDH assay); assay type: biochemical; conditions: CK2 enzyme 25 nM, 100 μM ATP, 37° C., Morrison equation
# Procedure, shortened: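 Purified CK2α at 25 nM final, 1.5 mM peptide substrate, 100 μM ATP, pH 8.25 Tris buffer; compounds pre-incubated 10 min at 37° C. ADP coupled via PK/LDH to NADH loss at 340 nm over 30 min, 37° C. Ki from rate versus concentration by Morrison equation, triplicate points.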
# Chain of purified CK2α enzyme (P68400 whole entry): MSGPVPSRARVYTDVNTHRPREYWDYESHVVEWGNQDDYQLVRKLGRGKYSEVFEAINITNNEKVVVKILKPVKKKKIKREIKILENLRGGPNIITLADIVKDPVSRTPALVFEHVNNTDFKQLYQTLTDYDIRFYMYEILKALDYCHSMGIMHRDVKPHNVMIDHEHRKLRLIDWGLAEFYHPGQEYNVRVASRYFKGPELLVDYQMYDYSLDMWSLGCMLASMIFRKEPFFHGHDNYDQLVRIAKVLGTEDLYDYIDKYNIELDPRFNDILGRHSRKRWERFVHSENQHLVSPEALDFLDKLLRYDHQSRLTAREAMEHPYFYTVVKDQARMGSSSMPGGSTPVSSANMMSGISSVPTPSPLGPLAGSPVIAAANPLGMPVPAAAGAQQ
melting point [°C],Ki [1] [nM],SMILES
> 260,< 2.5,"CS(=O)(=O)Cc1cc(Nc2cc(NC3CC3)n3ncc(C#N)c3n2)ccc1OC(F)F [Example 20, 7-(Cyclopropylamino)-5-((4-(difluoromethoxy)-3-((methylsulfonyl)methyl)phenyl)amino)pyrazolo[1,5-a]pyrimidine-3-carbonitrile]"
204 to 207,< 2.5,"C[S+]([O-])Cc1cc(Nc2cc(NC3CC3)n3ncc(C#N)c3n2)ccc1N1CCC1 (racemic) [Example 37, (±)-5-((4-(Azetidin-1-yl)-3-((methylsulfinyl)methyl)phenyl)amino)-7-(cyclopropylamino)pyrazolo[1,5-a]pyrimidine-3-carbonitrile]"
229 to 233,< 2.5,"CN(C)c1ccc(Nc2cc(NC3CC3)n3ncc(C#N)c3n2)cc1C[S+](C)[O-] (racemic) [Example 33, (±)-7-(Cyclopropylamino)-5-((4-(dimethylamino)-3-((methylsulfinyl)methyl)phenyl)amino)pyrazolo[1,5-a]pyrimidine-3-carbonitrile]"
238 to 240,2.5 to 10,"CS(=O)(=O)Cc1cc(Nc2cc(NC3CC3)n3ncc(C#N)c3n2)ccc1OCCN.Cl [Example 26, 5-((4-(2-aminoethoxy)-3-((methylsulfonyl)methyl)phenyl)amino)-7-(cyclopropylamino)pyrazolo[1,5-a]pyrimidine-3-carbonitrile hydrochloric acid salt]"
113 to 117,,"CN(CCN)c1ccc(Nc2nc(NC3CC3)c3ncc(C#N)n3n2)cc1CS(C)(=O)=O (as salt: trifluoroacetic acid salt) [Example 50, 2-((4-((2-aminoethyl)(methyl)amino)-3-((methylsulfonyl)methyl)phenyl)amino)-4-(cyclopropylamino)imidazo[2,1-f][1,2,4]triazine-7-carbonitrile mono trifluoroacetic acid salt]"
91 to 94,,"CN(CCN)c1ccc(Nc2cc(NC3CC3)c3ncc(C#N)n3n2)cc1C[S+](C)[O-] (racemic) (as salt: trifluoroacetic acid salt) [Example 47, (±)-6-((4-((2-Aminoethyl)(methyl)amino)-3-((methylsulfinyl)methyl)phenyl)amino)-8-(cyclopropylamino)imidazo[1,2-b]pyridazine-3-carbonitrile mono trifluoroacetic acid salt]"
185 to 189,,"CN(CC1(N)CC1)c1ccc(Nc2cc(NC3CC3)n3ncc(C#N)c3n2)cc1CS(C)(=O)=O (as salt: trifluoroacetic acid salt) [Example 66, 5-((4-(((1-aminocyclopropyl)methyl)(methyl)amino)-3-((methylsulfonyl)methyl)phenyl)amino)-7-(cyclopropylamino)pyrazolo[1,5-a]pyrimidine-3-carbonitrile mono trifluoroacetic acid salt]"
227 to 229,< 2.5,"COc1ccc(Nc2cc(NC3CC3)n3ncc(C#N)c3n2)cc1C[S+](C)[O-] (racemic) [Example 17, (±)-7-(Cyclopropylamino)-5-((4-methoxy-3-((methylsulfinyl)methyl)phenyl)amino)pyrazolo[1,5-a]pyrimidine-3-carbonitrile]"
233 to 235,< 2.5,"COc1ccc(Nc2cc(NC3CC3)n3ncc(C#N)c3n2)cc1CS(C)(=O)=O [Example 18, 7-(Cyclopropylamino)-5-((4-methoxy-3-((methylsulfonyl)methyl)phenyl)amino)pyrazolo[1,5-a]pyrimidine-3-carbonitrile]"
161 to 165,,"CC(N)c1ccc(Nc2cc(NC3CC3)n3ncc(C#N)c3n2)cc1C[S+](C)[O-] (racemic) (as salt: trifluoroacetic acid salt) [Example 58, (±)-5-((4-((R,S)-1-Aminoethyl)-3-((methylsulfinyl)methyl)phenyl)amino)-7-(cyclopropylamino)pyrazolo[1,5-a]pyrimidine-3-carbonitrile mono trifluoroacetic acid salt]"
93 to 97,,"CN(CCN)c1ccc(Nc2nc(NC3CC3)c3ncc(C#N)n3n2)cc1C[S+](C)[O-] (racemic) (as salt: trifluoroacetic acid salt) [Example 49, (±)-2-((4-((2-aminoethyl)(methyl)amino)-3-((methylsulfinyl)methyl)phenyl)amino)-4-(cyclopropylamino)imidazo[2,1-f][1,2,4]triazine-7-carbonitrile mono trifluoroacetic acid salt]"
220 to 222,< 2.5,"CS(=O)(=O)Cc1cc(Nc2cc(NC3CC3)n3ncc(C#N)c3n2)ccc1N1CCC1 [Example 32, 5-((4-(Azetidin-1-yl)-3-((methylsulfonyl)methyl)phenyl)amino)-7-(cyclopropylamino)pyrazolo[1,5-a]pyrimidine-3-carbonitrile]"
185 to 189,,"C[S+]([O-])Cc1cc(Nc2cc(NC3CC3)n3ncc(C#N)c3n2)ccc1C1(N)CC1 (racemic) (as salt: trifluoroacetic acid salt) [Example 59, (±)-5-((4-(1-Aminocyclopropyl)-3-((methylsulfinyl)methyl)phenyl)amino)-7-(cyclopropylamino)pyrazolo[1,5-a]pyrimidine-3-carbonitrile mono trifluoroacetic acid salt]"
233 to 235,< 2.5,"C[S+]([O-])Cc1cc(Nc2cc(NC3CC3)n3ncc(C#N)c3n2)ccc1OC(F)F (racemic) [Example 19, (±)-7-(Cyclopropylamino)-5-((4-(difluoromethoxy)-3-((methylsulfinyl)methyl)phenyl)amino)pyrazolo[1,5-a]pyrimidine-3-carbonitrile]"
206 to 208,< 2.5,"C[S+]([O-])Cc1cc(Nc2cc(NC3CC3)n3ncc(C#N)c3n2)ccc1OCCN (racemic) [Example 31, (±)-5-((4-(2-aminoethoxy)-3-((methylsulfinyl)methyl)phenyl)amino)-7-(cyclopropylamino)pyrazolo[1,5-a]pyrimidine-3-carbonitrile]"
141 to 145,,"CN(CC(C)(C)N)c1ccc(Nc2cc(NC3CC3)n3ncc(C#N)c3n2)cc1C[S+](C)[O-] (racemic) (as salt: trifluoroacetic acid salt) [Example 67, (±)-5-((4-((2-Amino-2-methylpropyl)(methyl)amino)-3-((methylsulfinyl)methyl)phenyl)amino)-7-(cyclopropylamino)pyrazolo[1,5-a]pyrimidine-3-carbonitrile mono trifluoroacetic acid salt]"
126 to 130,2.5 to 10,"C[S+]([O-])Cc1cc(Nc2cc(NC3CC3)n3ncc(C#N)c3n2)ccc1C1=CCCNC1.O=C(O)C(F)(F)F (racemic) [Example 53, (±)-7-(cyclopropylamino)-5-((3-((methylsulfinyl)methyl)-4-(1,2,5,6-tetrahydropyridin-3-yl)phenyl)amino)pyrazolo[1,5-a]pyrimidine-3-carbonitrile mono trifluoroacetic acid salt]"
